Results taken from patent publication US20160115167A1, “BMP INHIBITORS AND METHODS OF USE THEREOF” (THE BRIGHAM AND WOMEN'S HOSPITAL, INC., priority 2013, published 2016).

Tested on: BMP7 induced pSMAD1/5/8 in BMPR2−/− and TGF-β1 induced pSMAD2
Test: Western blot, BMP7 vs TGF-beta induced pSMAD in PASMCs
Format: cell-based, mice
Conditions: versus LDN-193189; BMPR2-deficient and wild type PASMCs; FIGS. 5b and 5c
Method: C2C12 […] cells stably transfected with BMP responsive element from the Idl promoter fused to luciferase reporter gene (BRE-Luc) and human embryonic kidney 293T cells stably transfected with the TGF-β responsive element from the PAI-1 promoter fused to luciferase reporter gene (CAGA-Luc) were cultured in DMEM (Life Technologies) supplemented with 10% FBS, L-glutamine, and pen/strep at 37° C. and 10% CO2. HepG2 human hepatoma cells (ATCC) were cultured in EMEM (Life Technologies) supplemented with 10% FBS, L-glutamine, and pen/strep at 37° C. and 10% CO2. C2C12 […] (ATCC) were cultured in DMEM (Life Technologies) supplemented with 10% FBS, L-glutamine, and pen/strep at 37° C. and 10% CO2. […]
Both WT and BMPR2^del/del PASMCs were seeded in 12-well plates (Falcon®; BD Biosciences) at 75% confluency (˜375,000 cells in 480 μL per well). […] The phosphorylation state of downstream effector proteins (pSMAD1/5/8 and pSMAD2 for BMP and TGF-β respectively) was measured by western blotting performed 30 minutes after ligand stimulation. Western blots were analyzed using ImageJ with positive controls at 100% ligand induced phospho-SMAD and negative controls being subtracted as background. […]

c1cc(-c2cnn3cc(-c4ccc(N5CCNCC5)cc4)cnc23)c2cccnc2c1 [LDN-212854]
selectivity, BMP7 induced pSMAD1/5/8 versus TGF-β1 induced pSMAD2: improved selectivity
